Source: PubChem BioAssay (NCI)
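All cell lines were grown in 96-well plates and treated with compound for 48 hours. The concentration for 50% growth inhibition is given as GI50. TGI denotes the concentration required for complete inhibition of growth.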

Assays:
Assay in all cases: inhibition of tumour cell growth, NCI panel, 48 h
SF-539 CNS = tested on: SF-539 CNS
SW-620 colon = tested on: SW-620 colon
SNB-75 CNS = tested on: SNB-75 CNS
HL-60(TB) leukemia = tested on: HL-60(TB) leukemia
CCRF-CEM leukemia = tested on: CCRF-CEM leukemia
PC-3 prostate = tested on: PC-3 prostate
HCC-2998 colon = tested on: HCC-2998 colon
K-562 leukemia = tested on: K-562 leukemia
MALME-3M melanoma = tested on: MALME-3M melanoma
U251 CNS = tested on: U251 CNS

Compound	GI50 (SF-539 CNS) [µM]	TGI (SF-539 CNS) [µM]	GI50 (SW-620 colon) [µM]	TGI (SW-620 colon) [µM]	GI50 (SNB-75 CNS) [µM]	TGI (SNB-75 CNS) [µM]	GI50 (HL-60(TB) leukemia) [µM]	TGI (HL-60(TB) leukemia) [µM]	GI50 (CCRF-CEM leukemia) [µM]	TGI (CCRF-CEM leukemia) [µM]	GI50 (PC-3 prostate) [µM]	TGI (PC-3 prostate) [µM]	GI50 (HCC-2998 colon) [µM]	TGI (HCC-2998 colon) [µM]	GI50 (K-562 leukemia) [µM]	TGI (K-562 leukemia) [µM]	GI50 (MALME-3M melanoma) [µM]	TGI (MALME-3M melanoma) [µM]	GI50 (U251 CNS) [µM]	TGI (U251 CNS) [µM]
C/C(=C(/c1ccc(O)cc1)c1ccc(Cl)cc1)c1ccccc1	0.545	1.25	0.8	2.78	0.629	1.96	0.646	1.71	0.764	2.87	0.721	2.56	0.612	1.51	0.539	2.83	0.459	1	0.537	1.18
[N-]=[N+]=CC(=O)COC(=O)c1ccccc1		> 100		> 100		> 100		> 100		> 100		> 100		> 100		> 100		> 100		> 100
Clc1ccc2ns[s+]c2c1		37.8		> 100		> 100		> 77.9		> 81.9		> 100		> 100		> 100		> 100		> 100
CC[C@H](Nc1nc(N)nc(C2CC2)c1C#N)c1nc2cccc(NCc3ccc(C(=O)NO)cc3)c2c(=O)n1-c1ccccc1	1.72	3.24	1.73	4.81	1.57	5.43	2.35	5.65	0.734	> 100	2.11	14.6	1.95	5	2.81	> 100	1.78	4.61		
CCCCCCCCCCCCCCCCCCNC(=O)OCC(CNS(=O)(=O)CCC[n+]1cccc2ccccc21)COC (stereo not given)		5.63		11.8		6.84		> 100				4.84				> 100		18.7		
Nc1nc(N)nc(CC(=O)O)n1		> 100		> 100		> 100		> 100		> 100		> 100				> 100		> 100		> 100
NNS(=O)(=O)c1cc(C(=O)O)cc(C(=O)O)c1		> 100		> 100				> 100		> 100		> 100				> 100		> 100		> 100
Cc1nn(CNc2ccccc2C(F)(F)F)c(=S)n1/N=C/c1ccc(F)cc1	> 100	> 100	> 100	> 100	29.5	91.3	91.9	> 100	14.2	> 100	97.9	> 100	> 100	> 100	89.4	> 100	> 100	> 100		
CCOC(=O)Cc1csc(N=Nc2c(O)[nH]c3ccccc23)n1		> 100		> 100		96.6		50.7		83.3		> 100		> 100		> 100				> 100
C[C@]12CC[C@H]3[C@@H](CC[C@]4(O)C[C@@H](O)CC[C@]34CO)[C@@]1(O)CC[C@@H]2C1=CC(=O)OC1		2.41		> 27		34.3		8.23		> 36.7		10.5		67.9		> 100		6.47		
CN(C)CCCc1c2ccccc2nc2ccc(Cl)cc12		33.6		98.4		31.8		40.3		35.8		37				67.7		30.1		24.8
CSc1nsc(S/C=C\C(=O)c2ccc(C)cc2)n1	19	36.2	1.3	17.8			11.6	> 68.9			29	> 57.6	17.8	33.8	6.37	> 100	19	38.6	17.2	41.5
COC(=O)[C@@]1(C)CCC[C@]2(C(=O)O)C3Cc4occc4[C@H](C)[C@@H]3CCC21 (stereo not given in full)		> 100		> 100				> 100		> 100		96.9		> 100		> 100		> 100		> 100
COc1cc(/C=C2\CC3C4CC=C5C[C@@H](O)CC[C@]5(C)C4CC[C@]3(C)C2=O)ccc1OCCCn1ccnc1 (stereo not given in full)	15.7	31.1	24.4	52.9			19.4	37.3	18	34.8	> 100	> 100	14.8	28.3	17.6	39.2	17.3	36.9	15	32.8
